Earlier results on one compound are cited in patent US20160361357A1, “STABLE HIGH CONCENTRATION STRONTIUM COMPOUNDS AND FORMULATIONS FOR TOPICAL APPLICATION” (Cosmederm Bioscience, Inc., priority 2015, published 2016).

Series [1] concerns the target synaptotagmin-1 (Homo sapiens, UniProt P21579). Conditions: strontium substitutes for calcium; response to TCN activation.
The test system of series [2] is TCN. Conditions: strontium mixed with 70% glycolic acid, pH 0.6 chemical peel.

Structures are written as SMILES. Some results are limits rather than exact numbers.

Chain of synaptotagmin-1 (P21579 whole entry, species assumed): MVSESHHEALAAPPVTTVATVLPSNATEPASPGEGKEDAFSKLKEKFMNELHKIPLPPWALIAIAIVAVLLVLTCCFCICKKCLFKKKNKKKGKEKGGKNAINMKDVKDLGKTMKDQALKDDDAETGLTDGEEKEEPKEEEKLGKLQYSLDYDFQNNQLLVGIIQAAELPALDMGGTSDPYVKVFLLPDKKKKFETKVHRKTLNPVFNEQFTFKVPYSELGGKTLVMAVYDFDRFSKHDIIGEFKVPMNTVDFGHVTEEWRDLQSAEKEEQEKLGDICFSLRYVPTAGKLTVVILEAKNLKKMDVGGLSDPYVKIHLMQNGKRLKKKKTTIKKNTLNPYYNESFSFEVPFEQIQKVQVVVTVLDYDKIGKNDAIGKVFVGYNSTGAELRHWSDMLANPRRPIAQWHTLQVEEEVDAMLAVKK

On to `[Sr+2]` [strontium], for which the “reduction of amplitude of synchronous neurotransmitter release” value in series [1] is given as “more than 90%”. The “burning pain and stinging suppressed” value in series [2] is given as at least 80%.
